Reference: patent publication US20240360159A1, “NOVEL APPLICATIONS FOR OXAZABOROLIDINES AND NEW METHODS OF MANUFACTURE THEREOF” (Pathway Intermediates Limited, priority 2021, published 2024)
Marks after values point to notes of the source that are not given here.

Experiments:
[1] = system: broiler (Ross 308; mixed sex); test: Growth performance in broilers, feed additives vs ampicillin (Example 5); format: in vivo; conditions: for ADFI / ADG / BW / FCR / Mortality / Survivability: 0.1% in feed
Protocol: The pure oxazaborolidines prepared by the method of Example 1 was investigated to assess its potential as a growth promotor in poultry.
(§1) 1200 birds, 1-day old broiler (Ross 308; mixed sex) were treated over 32 days. 4 dietary groups were assessed with 6 replicates per diet; 50 birds per pen. The four Dietary groups consisted of (1) a control basal diet and (2) feed supplemented with a feed additive according to an embodiment of the present invention (0.1% 2-butyl-3,4 dimethyl-5-phenyl 1,3,2-oxazaborolidine-compound 2), (3) feed supplemented with a feed additive according to another embodiment of the present invention (0.1% 3,4-dimethyl-2-5-diphenyl-1,3,2-oxazaborolidine-compound 1) and (4) feed supplemented with the known antibiotic, ampicillin (0.1%).
(§2) The feeding programme followed a typical feeding program on a farm (3 phases: starter; grower; finisher) with the feed additives added to the basal diet with top dressing.
(§3) The following measurements were taken:
Growth Performance: Body weight (BW); Weight gain (Average Daily Gain—ADG); Feed intake (Average Daily Feed Intake—ADFI); FCR (food conversion ratio—feed input divided by feed output); Mortality Production Index.

cecal microbiome = test: Cecal bacterial microbiome α-diversity by 16S sequencing (Example 5); format: in vivo, broiler chickens; conditions: first week; genus level; compared to the basal control; p=0.0184 (Compound 1) and 0.0393 (Compound 2), two-way ANOVA; 0.1% in diet
Protocol: as §1
Microbiome: Cecal samples were harvested at three time points (week 1, week 3 and week 5). Six replicates were harvested per dietary group. Total DNA was purified and the bacterial microbiome was analysed by 16S sequencing.
Plots display the smallest and largest value as the whiskers, with the box comprising the 25th percentile, median and 75th percentile.

[2] = system: broiler (Ross 308; mixed sex); test: Growth performance in broilers, feed additive (Example 4); format: in vivo; conditions: 0.055% in feed
Protocol: The pure oxazaborolidine compound 5 (R)-(+)-2-Methyl-CBS-oxazaborolidine prepared according to Example 1 was investigated to assess its potential as a growth promoter in poultry.
240 birds, 1-day old broiler (Ross 308; mixed sex) were treated over 32 days. Two dietary groups were given six replicates per diet; […]. The two treatments consisted of (1) a control basal diet and (2) feed supplemented with a feed additive according to an embodiment of the present invention (0.055% (R)-(+)-2-Methyl-CBS-oxazaborolidine).
as §2, §3
Growth Performance: Body weight (BW); Weight gain (Average Daily Gain-ADG); Feed intake (Average Daily Feed Intake—ADFI); FCR (food conversion ratio-feed input divided by feed output).

[3] = 0.1% in diet, compared to the basal diet Control

| SMILES | ADFI ([1]; Grower (8-21 d)) | ADG ([1]; Grower (8-21 d)) | BW ([1]; Grower (8-21 d)) | FCR ([1]; Grower (8-21 d)) | Mortality ([1]; Grower (8-21 d)) [%] | ADFI ([1]; Grower (22-32 d)) | ADG ([1]; Grower (22-32 d)) | BW ([1]; Grower (22-32 d)) | FCR ([1]; Grower (22-32 d)) | Mortality ([1]; Grower (22-32 d)) [%] | ADFI ([1]; Overall (1-32 d)) | ADG ([1]; Overall (1-32 d)) | FCR ([1]; Overall (1-32 d)) | Survivability ([1]; Overall (1-32 d)) [%] | ADFI ([1]; Starter (1-7 d)) | ADG ([1]; Starter (1-7 d)) | BW ([1]; Starter (1-7 d)) | FCR ([1]; Starter (1-7 d)) | Mortality ([1]; Starter (1-7 d)) [%] | decrease of overall FCR [1, 3] [%] | also measured |
| --- | --- | --- | --- | --- | --- | --- | --- | --- | --- | --- | --- | --- | --- | --- | --- | --- | --- | --- | --- | --- | --- |
| CC1(C)S[C@@H]2[C@H](NC(=O)[C@H](N)c3ccccc3)C(=O)N2[C@H]1C(=O)O [ATB, ampicillin, reference compound] | 85.9^A g | 62.6^A g | 1074.6^A g | 1.42^bc | 1.53 | 155.9^A g | 83.0^A g | 1987.4^A g | 2.06 | 0.00 | 96.0^A g | 60.7^A g | 1.66^y | 95.4 | 21.9^A g | 22.0^A g | 199.1^A g | 0.99^C | 2.33 |  |  |
| C[C@H]1[C@@H](c2ccccc2)OB(c2ccccc2)N1C [Compound 1, 3,4-dimethyl-2-5-diphenyl-1,3,2-oxazaborolidine] | 72.7^C g | 51.5^C g | 892.8^C g | 1.46^ab | 0.37 | 133.5^C g | 70.6^C g | 1669.4^C g | 2.08 | 0.40 | 82.0^C g | 50.8^C g | 1.69^x | 97.9 | 19.5^B g | 18.2^C g | 172.4^C g | 1.07^A | 1.00 | 0.59 | α-diversity of the cecal microbiome (cecal microbiome): significantly increased |
| CCCCB1OC(c2ccccc2)C(C)N1C (stereo not drawn) [Compound 2, 2-butyl-3,4 dimethyl-5-phenyl 1,3,2-oxazaborolidine] | 80.7^B g | 58.6^B g | 1002.2^B g | 1.42^c | 1.12 | 144.0^B g | 76.1^B g | 1839.0^B g | 2.09 | 0.42 | 89.3^B g | 56.1^B g | 1.67^xy | 96.7 | 20.4^B g | 19.6^B g | 182.0^B g | 1.04^B | 1.33 | 1.76 | increase of overall ADFI [1, 3]: 4.6%; increase of overall ADG [1, 3]: 5.7%; increase in body weight gain ([1]; finisher phase, 0.1% in diet, compared to the basal diet Control): 5.7%; increase in body weight gain ([1]; grower phase, 0.1% in diet, compared to the basal diet Control): 8.7%; increase in body weight gain ([1]; starter phase, 0.1% in diet, compared to the basal diet Control): 4.5%; α-diversity of the cecal microbiome (cecal microbiome): significantly increased |
| CB1OC(c2ccccc2)(c2ccccc2)[C@H]2CCCN12 [Compound 5, (R)-(+)-2-Methyl-CBS-oxazaborolidine] |  |  |  |  |  |  |  |  |  |  |  |  |  |  |  |  |  |  |  |  | ADFI ([2]; Finisher (22-32 d)): 147.8 g; ADG ([2]; Finisher (22-32 d)): 90.1 g; BW ([2]; Finisher (22-32 d)): 2078.6 g; FCR ([2]; Finisher (22-32 d)): 1.64; ADFI ([2]; Grower (8-21 d)): 68.3 g; ADG ([2]; Grower (8-21 d)): 48.3 g; BW ([2]; Grower (8-21 d)): 816.9 g; FCR ([2]; Grower (8-21 d)): 1.41; ADFI ([2]; Overall (1-32 d)): 89.5 g; ADG ([2]; Overall (1-32 d)): 58.2 g; FCR ([2]; Overall (1-32 d)): 1.52; ADFI ([2]; Starter (1-7 d)): 15.5 g; ADG ([2]; Starter (1-7 d)): 14.2 g; BW ([2]; Starter (1-7 d)): 140.7 g; FCR ([2]; Starter (1-7 d)): 1.08 |
